Data published in patent US3962039A, “Analytical procedure for thyroid hormones” (Center for Laboratory Medicine, priority 1975, dated 1976).
Where a name gives a salt, the structure may show the parent alone.

System: serum protein
Settings: pH 1.0, 30 minutes
Protocol: Contents of the tubes are set out in TABLE II below:
The four tubes were incubated at room temperature for 30 minutes. At the end of the incubation, 4.0 ml of sodium barbital buffer (0.075 M, pH 8.6) was added and mixed with the contents of each tube. The radioactivity of each tube was measured with a gammacounter.
Each of the tubes was then transferred to an Amicon ultrafiltration cone with a centrifuge tube attachment. The tubes were centrifuged for 45 minutes at 2,200 × g at room temperature. The entire ultrafiltrate was collected and the radioactivity counted.
a = radioactivity before ultrafiltration,
b = the radioactivity in the ultrafiltrate

Compound | destruction of thyroxine binding sites of the serum proteins
Cl [HCl, Hydrochloric acid] | only partially destroy
pepsin | completely destroyed
